Data taken from patent US9718828B2 (MERCK SHARP & DOHME CORP., priority 2011, dated 2017).
Counter-ions that a name gives are not always drawn.

Target: hBTK (full-length BTK, 6HIS-tag cleaved) (Homo sapiens (Human), UniProt Q06187)
Assay: BTK enzymatic activity, LANCE TR-FRET assay (Assay Method C)
Assay type: biochemical
Conditions: LANCE TR-FRET, 50 pM hBTK, 25 μM ATP; class 100-1000 is given as ≧100 nM-<1 μM; read-out: IC50 Btk activity values - Assay Method C

hBTK (full-length BTK, 6HIS-tag cleaved), sequence (Q06187 whole entry): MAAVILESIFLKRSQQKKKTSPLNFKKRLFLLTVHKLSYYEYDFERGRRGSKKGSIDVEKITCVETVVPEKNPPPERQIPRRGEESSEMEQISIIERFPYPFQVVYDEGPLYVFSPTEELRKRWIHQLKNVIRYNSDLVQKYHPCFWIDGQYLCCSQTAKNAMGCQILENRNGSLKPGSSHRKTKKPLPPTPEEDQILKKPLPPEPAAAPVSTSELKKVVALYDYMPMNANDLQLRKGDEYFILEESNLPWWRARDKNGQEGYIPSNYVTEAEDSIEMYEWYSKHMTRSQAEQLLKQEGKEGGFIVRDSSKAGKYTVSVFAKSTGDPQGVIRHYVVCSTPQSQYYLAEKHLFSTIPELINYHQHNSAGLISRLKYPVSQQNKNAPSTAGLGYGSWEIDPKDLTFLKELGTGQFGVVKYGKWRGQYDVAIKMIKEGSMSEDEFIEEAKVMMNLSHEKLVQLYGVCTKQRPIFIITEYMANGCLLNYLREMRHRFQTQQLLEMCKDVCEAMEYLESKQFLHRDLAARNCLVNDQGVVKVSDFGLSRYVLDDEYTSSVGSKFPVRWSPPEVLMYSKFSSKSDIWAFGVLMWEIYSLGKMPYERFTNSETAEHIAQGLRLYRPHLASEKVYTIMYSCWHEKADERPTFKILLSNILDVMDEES

| Structure (SMILES) | IC50 [µM] |
| --- | --- |
| Cc1cnc(N)c2c(-c3ccc(C(=O)Nc4cc(C(F)(F)F)ccn4)cc3)nc([C@H]3CN(C(=O)[C@H](C)O)CCO3)n12 [Example 543, 4-(8-amino-3-{(2R)-4-[(2S)-2-hydroxypropanoyl]morpholin-2-yl}-5-methylimidazo[1,5-a]pyrazin-1-yl)-N-[4-(trifluoromethyl)pyridin-2-yl]benzamide, TFA salt] | < 0.01 |
| Cc1cnc(N)c2c(-c3ccc(C(=O)Nc4cc(C(F)(F)F)ccn4)cc3)nc([C@H]3CN(C(=O)[C@@H](C)O)CCO3)n12 [Example 544, 4-(8-amino-3-{(2R)-4-[(2R)-2-hydroxypropanoyl]morpholin-2-yl}-5-methylimidazo[1,5-a]pyrazin-1-yl)-N-[4-(trifluoromethyl)pyridin-2-yl]benzamide] | < 0.01 |
| CS(=O)(=O)CC(=O)N1CCO[C@@H](c2nc(-c3ccc(C(=O)Nc4cc(C(F)(F)F)ccn4)cc3)c3c(N)nccn23)C1 [Example 545, 4-(8-amino-3-{(2R)-4-[(methylsulfonyl)acetyl]morpholin-2-yl}imidazo[1,5-a]pyrazin-1-yl)-N-[4-(trifluoromethyl)pyridin-2-yl]benzamide] | < 0.01 |
| Nc1nccn2c([C@H]3CN[C@@H](CO)CO3)nc(-c3ccc(C(=O)Nc4cc(C(F)(F)F)ccn4)cc3)c12 [Example 546, 4-{8-amino-3-[(2R,5S)-5-(hydroxymethyl)morpholin-2-yl]imidazo[1,5-a]pyrazin-1-yl}-N-[4-(trifluoromethyl)pyridin-2-yl]benzamide] | < 0.01 |

The remaining lines, values ahead:

| IC50 [µM] | Structure (SMILES) |
| --- | --- |
| < 0.01 | CCOCC(=O)N1CCO[C@@H](c2nc(-c3ccc(C(=O)Nc4cc(C(F)(F)F)ccn4)cc3)c3c(N)ncc(C)n23)C1 [Example 537, 4-{8-amino-3-[(2R)-4-(ethoxyacetyl)morpholin-2-yl]-5-methylimidazo[1,5-a]pyrazin-1-yl}-N-[4-(trifluoromethyl)pyridin-2-yl]benzamide, TFA salt] |
| < 0.01 | Cc1cnc(N)c2c(-c3ccc(C(=O)Nc4cc(C(F)(F)F)ccn4)cc3)nc([C@H]3CN(C(=O)C(F)F)CCO3)n12 [Example 538, 4-{8-amino-3-[(2R)-4-(difluoroacetyl)morpholin-2-yl]-5-methylimidazo[1,5-a]pyrazin-1-yl}-N-[4-(trifluoromethyl)pyridin-2-yl]benzamide, TFA salt] |
| < 0.01 | COCCN1CCO[C@@H](c2nc(-c3ccc(C(=O)Nc4cc(C(F)(F)F)ccn4)cc3)c3c(N)ncc(C)n23)C1 [Example 539, 4-{8-amino-3-[(2R)-4-(2-methoxyethyl)morpholin-2-yl]-5-methylimidazo[1,5-a]pyrazin-1-yl}-N-[4-(trifluoromethyl)pyridin-2-yl]benzamide, TFA salt] |
| < 0.01 | Cc1cnc(N)c2c(-c3ccc(C(=O)Nc4cc(C(F)(F)F)ccn4)cc3)nc([C@H]3CN(CCO)CCO3)n12 [Example 540, 4-{8-amino-3-[(2R)-4-(2-hydroxyethyl)morpholin-2-yl]-5-methylimidazo[1,5-a]pyrazin-1-yl}-N-[4-(trifluoromethyl)pyridin-2-yl]benzamide, TFA salt] |
| < 0.01 | CCOCCN1CCO[C@@H](c2nc(-c3ccc(C(=O)Nc4cc(C(F)(F)F)ccn4)cc3)c3c(N)ncc(C)n23)C1 [Example 541, 4-{8-amino-3-[(2R)-4-(2-ethoxyethyl)morpholin-2-yl]-5-methylimidazo[1,5-a]pyrazin-1-yl}-N-[4-(trifluoromethyl)pyridin-2-yl]benzamide, TFA salt] |
| < 0.01 | COCCN1CCO[C@@H](c2nc(-c3ccc(C(=O)Nc4cc(C(F)(F)F)ccn4)cc3)c3c(N)ncc(Cl)n23)C1 [Example 542, 4-{8-amino-5-chloro-3-[(2R)-4-(2-methoxyethyl)morpholin-2-yl]imidazo[1,5-a]pyrazin-1-yl}-N-[4-(trifluoromethyl)pyridin-2-yl]benzamide, TFA salt] |
